Values of other authors, collected in patent publication US20150174247A1, “ORAL PHARMACEUTICAL PREPARATION OF ARIPIPRAZOLE” (MARUISHI PHARMACEUTICAL CO., LTD., priority 2012, published 2015).

Structure (SMILES): O=C1CCc2ccc(OCCCCN3CCN(c4cccc(Cl)c4Cl)CC3)cc2N1 [aripiprazole, 7-{4-[4-(2,3-dichlorophenyl)-1-piperazinyl]-butoxy}-3,4-dihydro-2(1H)-quinolinone]
- solubility in acidic range (acidic range (pH 4.5 or less)): highly soluble
- solubility in neutral or higher pH range (neutral (pH 5) or higher pH range): less soluble
